The test system of experiment [1] is RS4;11-BCL-2 F104L cells. Nature of the experiment: Cell proliferation assay (MTS), RS4;11-BCL-2 F104L engineered cells. It counts as cell-based. The following applies: Homo sapiens, 120 h, read-out: RS4, 11 BCL2-F104L IC50. From the text:
MTS testing kit was purchased from Promega (Madison, WI, USA). The RPMI-1640, Fetal bovine serum and Penicillin-Streptomycin were purchased from BI (Biological Industries, Beit Haemek, Israel). Puromycin was purchased from Beyotime (shanghai, China). Dimethyl sulfoxide (DMSO) was purchased from Sigma (St. Louis., MO, USA). RS4;11-BCL-2 G101V (Cobioer Lot. #: CBD2021063013P4), RS4;11-BCL-2 D103E (Cobioer Lot. #: CBD2021063013P4), RS4;11-BCL-2 D103Y (Cobioer Lot. #: CBD2022012101P4) and RS4;11-BCL-2 F104L (Cobioer Lot. #: CBD2021063014P4) cells were cultured in RPMI1640 supplemented with 1 ug/mL puromycin, 100 U/mL Penicillin-Streptomycin and 10% FBS.
To investigate whether a compound is able to inhibit the activity of BCL-2 mutation in cells, a mechanism-based assay using engineered cell lines stably overexpressing BCL-2 mutation (RS4;11-BCL-2 G101V, RS4;11-BCL-2 D103E, RS4;11-BCL-2 D103Y, and RS4;11-BCL-2 F104L) was developed. In this assay, the inhibition of BCL-2 mutation was reflected by the inhibition of cell proliferation of engineered RS4;11 cells. Cells were plated into 96-well plates at optimized cell density (RS4;11-BCL-2 G101V: 5000 cells/well; RS4;11-BCL-2 D103E: 7500 cells/well; RS4;11-BCL-2 D103Y: 7500 cells/well; RS4;11-BCL-2 F104L: 5000 cells/well). Plates were incubated at 37° C., with 5% CO2 for 4 h (RS4;11-BCL-2 G101V, RS4;11-BCL-2 F104L) and 24 h (RS4;11-BCL-2 D103E, RS4;11-BCL-2 D103Y), respectively. Compounds were serially diluted and added to the plates with the final concentrations of 10000, 3333.3, 1111.1, 370.4, 123.5, 41.2, 13.7, 4.6 and 1.5 nM. Plates were incubated at 37° C., with 5% CO2 for 120 h (RS4; 11-BCL-2 G101V, RS4; 11-BCL-2 F104L) and 72 h (RS4;11-BCL-2 D103E, RS4;11-BCL-2 D103Y), respectively. 20 μl MTS was added into each well and the plates were incubated at 37° C., with 5% CO2 exactly for 2 h. The absorbance was measured by a microplate reader at 490 nm. IC50 values were calculated using GraphPad Prism 8.0 software.

The subject of experiment [2] is RS4;11-BCL-2 G101V cells. Nature of the experiment: Cell proliferation assay (MTS), RS4;11-BCL-2 G101V engineered cells. It is filed as cell-based. The following applies: Homo sapiens, 120 h, read-out: RS4, 11 BCL2-G101V IC50. The method in brief: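 Cells were plated, allowed to settle 4 h (G101V, F104L) or 24 h (D103E, D103Y), and treated with serially diluted compound (10000 down to 1.5 nM). After 120 h or 72 h respectively at 37 °C, MTS was added for 2 h and absorbance at 490 nm gave IC50 values.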

In the case of `COc1cc(CN2CCC(N3CC4(CCN(c5ccc(C(=O)NS(=O)(=O)c6cnc(NC[C@H]7CC[C@](C)(O)CC7)c([N+](=O)[O-])c6)c(Oc6cc7c(F)c[nH]c7nc6OC)c5)CC4)C3)[C@H](c3ccccc3C(C)C)C2)ccn1` (single isomer, unassigned) [Example 363, 2-((3-fluoro-6-methoxy-1H-pyrrolo[2,3-b]pyridin-5-yl)oxy)-N-((6-((((1r,4r)-4-hydroxy-4-methylcyclohexyl)methyl)amino)-5-nitropyridin-3-yl)sulfonyl)-4-(2-(3-(2-isopropylphenyl)-1-((2-methoxypyridin-4-yl)methyl)piperidin-4-yl)-2,7-diazaspiro[3.5]nonan-7-yl)benzamide], the IC50 (in general, the point on the concentration scale where inhibition reaches its midpoint) in experiment [1] amounted to 1 nM.
Take `COc1ccc(CN2CCC(N3CC4(CCN(c5ccc(C(=O)NS(=O)(=O)c6cnc(NC[C@H]7CC[C@](C)(O)CC7)c([N+](=O)[O-])c6)c(Oc6cc7c(F)c[nH]c7nc6OC)c5)CC4)C3)C(c3ccccc3C(C)C)C2)cc1` (stereo partly shown) [Example 19, 2-((3-fluoro-6-methoxy-1H-pyrrolo[2,3-b]pyridin-5-yl)oxy)-N-((6-((((1r,4r)-4-hydroxy-4-methylcyclohexyl)methyl)amino)-5-nitropyridin-3-yl)sulfonyl)-4-(2-(3-(2-isopropylphenyl)-1-(4-methoxybenzyl)piperidin-4-yl)-2,7-diazaspiro[3.5]nonan-7-yl)benzamide]: the 50% inhibitory concentration (IC50) in experiment [1] was found to be 1 nM.
Take `CCOc1nc2[nH]cc(F)c2cc1Oc1cc(N2CCC3(CC2)CN(C2CCN(Cc4ccc(OC)cc4)CC2c2ccccc2C(C)C)C3)ccc1C(=O)NS(=O)(=O)c1cnc(NC[C@H]2CC[C@](C)(O)CC2)c([N+](=O)[O-])c1` (stereo partly shown) [Example 20, 2-((6-ethoxy-3-fluoro-1H-pyrrolo[2,3-b]pyridin-5-yl)oxy)-N-((6-((((1r,4r)-4-hydroxy-4-methylcyclohexyl)methyl)amino)-5-nitropyridin-3-yl)sulfonyl)-4-(2-(3-(2-isopropylphenyl)-1-(4-methoxybenzyl)piperidin-4-yl)-2,7-diazaspiro[3.5]nonan-7-yl)benzamide]: the IC50 in experiment [1] amounted to 3 nM.
Take `COc1cc(CN2CCN(C3CC4(CCN(c5ccc(C(=O)NS(=O)(=O)c6cnc(NC[C@H]7CC[C@](C)(O)CC7)c([N+](=O)[O-])c6)c(Oc6cc7c(F)c[nH]c7nc6OC)c5)CC4)C3)[C@H](c3ccccc3C(C)C)C2)cc(C)n1` [Example 55, 2-((3-fluoro-6-methoxy-1H-pyrrolo[2,3-b]pyridin-5-yl)oxy)-N-((6-((((1r,4r)-4-hydroxy-4-methylcyclohexyl)methyl)amino)-5-nitropyridin-3-yl)sulfonyl)-4-(2-((R)-2-(2-isopropylphenyl)-4-((2-methoxy-6-methylpyridin-4-yl)methyl)piperazin-1-yl)-7-azaspiro[3.5]nonan-7-yl)benzamide]: the IC50 in experiment [2] and in experiment [1] was 1 nM in each case.
As for `COc1cc(CN2CCN(C3CC4(CCN(c5ccc(C(=O)NS(=O)(=O)c6cnc(NC[C@H]7CC[C@](C)(O)CC7)c([N+](=O)[O-])c6)c(Oc6cc7c(F)c[nH]c7nc6OC)c5)CC4)C3)[C@H](c3ccccc3C(C)C)C2)cc(C#N)n1` [Example 56, 4-(2-((R)-4-((2-cyano-6-methoxypyridin-4-yl)methyl)-2-(2-isopropylphenyl)piperazin-1-yl)-7-azaspiro[3.5]nonan-7-yl)-2-((3-fluoro-6-methoxy-1H-pyrrolo[2,3-b]pyridin-5-yl)oxy)-N-((6-((((1r,4r)-4-hydroxy-4-methylcyclohexyl)methyl)amino)-5-nitropyridin-3-yl)sulfonyl)benzamide], the values for the IC50 in experiment [2] and in experiment [1] were 2 nM and 3 nM, respectively.
On to `COc1cc(CN2CCN(C3CC4(CCN(c5ccc(C(=O)NS(=O)(=O)c6cnc(NC[C@H]7CC[C@](C)(O)CC7)c([N+](=O)[O-])c6)c(Oc6cc7c(F)c[nH]c7nc6OC)c5)CC4)C3)[C@H](c3ccccc3C(C)C)C2)cc(N)n1` [Example 57, 4-(2-((R)-4-((2-amino-6-methoxypyridin-4-yl)methyl)-2-(2-isopropylphenyl)piperazin-1-yl)-7-azaspiro[3.5]nonan-7-yl)-2-((3-fluoro-6-methoxy-1H-pyrrolo[2,3-b]pyridin-5-yl)oxy)-N-((6-((((1r,4r)-4-hydroxy-4-methylcyclohexyl)methyl)amino)-5-nitropyridin-3-yl)sulfonyl)benzamide], for which the half-maximal inhibitory concentration (IC50) in experiment [2] and in experiment [1] was 1 nM throughout.
`COc1ccc(CN2CCN(C3CC4(CCN(c5ccc(C(=O)NS(=O)(=O)c6cnc(NC[C@H]7CC[C@](C)(O)CC7)c([N+](=O)[O-])c6)c(Oc6cnc7[nH]ccc7c6)c5)CC4)C3)[C@H](c3ccccc3C(C)C)C2)cc1` [Example 61, 2-((1H-pyrrolo[2,3-b]pyridin-5-yl)oxy)-N-((6-((((1r,4r)-4-hydroxy-4-methylcyclohexyl)methyl)amino)-5-nitropyridin-3-yl)sulfonyl)-4-(2-((R)-2-(2-isopropylphenyl)-4-(4-methoxybenzyl)piperazin-1-yl)-7-azaspiro[3.5]nonan-7-yl)benzamide]: in experiment [1], the half-inhibitory concentration (IC50) was 1 nM.
Consider `COc1cc(CN2CCN(C3CC4(CCN(c5ccc(C(=O)NS(=O)(=O)c6cnc(NC[C@H]7CC[C@](C)(O)CC7)c([N+](=O)[O-])c6)c(Oc6cc7c(F)c[nH]c7nc6OC)c5)CC4)C3)[C@H](c3ccccc3C(C)C)C2)cc(SC)n1` [Example 63, 2-((3-fluoro-6-methoxy-1H-pyrrolo[2,3-b]pyridin-5-yl)oxy)-N-((6-((((1r,4r)-4-hydroxy-4-methylcyclohexyl)methyl)amino)-5-nitropyridin-3-yl)sulfonyl)-4-(2-((R)-2-(2-isopropylphenyl)-4-((2-methoxy-6-(methylthio)pyridin-4-yl)methyl)piperazin-1-yl)-7-azaspiro[3.5]nonan-7-yl)benzamide], for which the IC50 in experiment [2] and in experiment [1] was 1 nM each time.
In the case of `CCOc1cc(CN2CCN(C3CC4(CCN(c5ccc(C(=O)NS(=O)(=O)c6cnc(NC[C@H]7CC[C@](C)(O)CC7)c([N+](=O)[O-])c6)c(Oc6cc7c(F)c[nH]c7nc6OC)c5)CC4)C3)[C@H](c3ccccc3C(C)C)C2)ccn1` [Example 65, 4-(2-((R)-4-((2-ethoxypyridin-4-yl)methyl)-2-(2-isopropylphenyl)piperazin-1-yl)-7-azaspiro[3.5]nonan-7-yl)-2-((3-fluoro-6-methoxy-1H-pyrrolo[2,3-b]pyridin-5-yl)oxy)-N-((6-((((1r,4r)-4-hydroxy-4-methylcyclohexyl)methyl)amino)-5-nitropyridin-3-yl)sulfonyl)benzamide], the half-inhibitory concentration (IC50) in experiment [2] and in experiment [1] was 1 nM throughout.
In the case of `CCOc1nc2[nH]cc(F)c2cc1Oc1cc(N2CCC3(CC2)CC(N2CCOC[C@H]2c2ccccc2C(C)C)C3)ccc1C(=O)NS(=O)(=O)c1cnc(NC[C@H]2CC[C@](C)(O)CC2)c([N+](=O)[O-])c1` [Example 88, 2-((6-ethoxy-3-fluoro-1H-pyrrolo[2,3-b]pyridin-5-yl)oxy)-N-((6-((((1r,4r)-4-hydroxy-4-methylcyclohexyl)methyl)amino)-5-nitropyridin-3-yl)sulfonyl)-4-(2-((R)-3-(2-isopropylphenyl)morpholino)-7-azaspiro[3.5]nonan-7-yl)benzamide], the concentration for half-maximal inhibition (IC50) in experiment [1] came out at 1 nM.
Regarding `CCOc1nc2[nH]cc(F)c2cc1Oc1cc(N2CCC3(CC2)CC(N2CCC[C@H]2c2ccccc2C(C)C)C3)ccc1C(=O)NS(=O)(=O)c1cnc(NC[C@H]2CC[C@](C)(O)CC2)c([N+](=O)[O-])c1` [Example 90, 2-((6-ethoxy-3-fluoro-1H-pyrrolo[2,3-b]pyridin-5-yl)oxy)-N-((6-((((1r,4r)-4-hydroxy-4-methylcyclohexyl)methyl)amino)-5-nitropyridin-3-yl)sulfonyl)-4-(2-((S)-2-(2-isopropylphenyl)pyrrolidin-1-yl)-7-azaspiro[3.5]nonan-7-yl)benzamide], the IC50 in experiment [1] is 1 nM.

Values taken from patent US20250122191A1, “COMPOUNDS AS BCL-2 INHIBITORS” (Fochon Biosciences, Ltd, priority 2021, published 2025).
